Data taken from patent US12496309B2, “Method for treatment of pancreatitis” (NovMetaPharma Co., Ltd., priority 2020, dated 2025).

Experiments:
[1] = PK; format: in vivo; conditions: for Cmax / PK BA % / clearance / half-life / Vd: in vivo; for clearance: read-out: PK CL; for half-life: read-out: PK T½ (converted); for Vd: read-out: PK Vss
[2] = biological target: ERα (Homo sapiens, UniProt P03372); test: ERα binding selectivity
[3] = biological target: T1, hERG (Homo sapiens, UniProt Q12809); test: hERG binding
T1 sequence (Q12809 whole entry): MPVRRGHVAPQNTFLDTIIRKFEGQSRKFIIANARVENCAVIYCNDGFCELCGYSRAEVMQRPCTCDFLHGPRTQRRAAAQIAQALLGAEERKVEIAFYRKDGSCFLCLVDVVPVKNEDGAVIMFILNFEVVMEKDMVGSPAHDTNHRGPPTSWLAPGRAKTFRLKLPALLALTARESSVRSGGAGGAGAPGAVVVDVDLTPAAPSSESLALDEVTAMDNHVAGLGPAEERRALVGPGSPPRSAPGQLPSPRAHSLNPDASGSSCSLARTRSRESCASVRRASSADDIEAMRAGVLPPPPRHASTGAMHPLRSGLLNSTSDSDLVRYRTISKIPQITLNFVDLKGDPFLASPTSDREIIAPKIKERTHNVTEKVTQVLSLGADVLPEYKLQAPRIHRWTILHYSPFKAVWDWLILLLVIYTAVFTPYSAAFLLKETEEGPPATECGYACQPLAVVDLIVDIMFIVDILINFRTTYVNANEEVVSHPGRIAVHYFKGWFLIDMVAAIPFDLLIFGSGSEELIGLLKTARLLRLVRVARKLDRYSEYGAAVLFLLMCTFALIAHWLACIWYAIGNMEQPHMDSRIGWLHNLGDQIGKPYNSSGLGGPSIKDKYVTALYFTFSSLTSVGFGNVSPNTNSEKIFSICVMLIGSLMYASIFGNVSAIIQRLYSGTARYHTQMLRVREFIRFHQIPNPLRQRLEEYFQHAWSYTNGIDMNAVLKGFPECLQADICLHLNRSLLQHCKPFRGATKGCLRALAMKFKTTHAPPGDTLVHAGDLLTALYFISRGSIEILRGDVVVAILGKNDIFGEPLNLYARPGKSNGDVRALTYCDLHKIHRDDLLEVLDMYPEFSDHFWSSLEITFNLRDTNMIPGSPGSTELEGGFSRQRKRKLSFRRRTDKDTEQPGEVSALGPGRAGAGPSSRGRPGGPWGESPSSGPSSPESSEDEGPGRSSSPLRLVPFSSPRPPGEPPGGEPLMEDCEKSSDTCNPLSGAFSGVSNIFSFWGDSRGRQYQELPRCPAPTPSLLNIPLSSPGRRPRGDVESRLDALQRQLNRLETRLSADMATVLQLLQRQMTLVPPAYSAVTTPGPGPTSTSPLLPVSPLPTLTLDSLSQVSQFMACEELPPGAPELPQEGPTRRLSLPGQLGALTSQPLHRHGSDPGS

[4] = Permeability (PAMPA); format: in vitro ADME; conditions: for Papp: PAMPA
[5] = biological target: T1, hERG; test: hERG current; format: cell-based
[6] = biological target: ERRα (Homo sapiens, UniProt P11474); test: ERRα binding selectivity
Chain of ERRα (P11474 whole entry, canonical isoform): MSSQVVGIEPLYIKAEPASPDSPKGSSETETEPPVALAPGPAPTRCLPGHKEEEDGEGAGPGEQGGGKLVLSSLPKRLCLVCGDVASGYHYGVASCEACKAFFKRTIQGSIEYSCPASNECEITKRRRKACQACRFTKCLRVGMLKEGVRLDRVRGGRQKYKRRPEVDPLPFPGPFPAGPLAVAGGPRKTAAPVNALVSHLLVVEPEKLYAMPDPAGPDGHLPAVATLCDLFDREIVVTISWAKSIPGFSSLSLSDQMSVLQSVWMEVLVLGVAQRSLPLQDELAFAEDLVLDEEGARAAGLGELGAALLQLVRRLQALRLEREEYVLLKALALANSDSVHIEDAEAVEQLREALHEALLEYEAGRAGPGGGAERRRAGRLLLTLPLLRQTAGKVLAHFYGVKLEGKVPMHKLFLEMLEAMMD

[7] = system: CYP; test: CYP inhibition, all isoforms; format: in vitro ADME
[8] = MS (microsomal stability) h; format: in vitro ADME, human
[9] = MS (microsomal stability) d; format: in vitro ADME, dog
[10] = MS (microsomal stability) r; format: in vitro ADME, rat
[11] = Water solubility; format: physicochemical
[12] = MS (microsomal stability) m; format: in vitro ADME, mouse
[13] = system: TLCS-induced acute pancreatitis; test: Intraductal bile acid (TLCS) infusion model of pancreatitis; format: in vivo, mouse; conditions: 20 mg/kg
Text: (§1) • Materials: Caerulein (C9026) and Taurolithocholic acid 3-sulfate disodium salt (TLCS; T0512) was purchased from Sigma. • Animal models: Eight to ten-week male C57BL/6 mice (Jackson Lab) were used according to an animal protocol approved by the Institutional Animal Care and Use Committee of Kyungpook National University. 1. Caerulein-Induced Model of Pancreatitis
(§2) Upon completion of experiments with above-mentioned animal models (1) and (2), pancreas tissue were snap frozen in liquid nitrogen and stored at −80° C. for analysis of trypsin activity, for protein analysis by Western blots and for gene expression analysis by RT-qPCR. Pancreas were dissected and fixed in 10% neutral-buffered formalin and embedded in paraffin. Five-μm sections were prepared and stained with hematoxylin and eosin (H&E). Pancreas injury was determined by measuring serum amylase (K711-100, Biovision), serum lipase (MAK046, Sigma) and pancreatic tissue trypsin activity (Biovision) was determined using commercially available kit.
Upon completion of the experimental timeline, these animals were sacrificed and serum and pancreas tissue samples were collected and analyzed.

[14] = system: Caerulein-induced acute pancreatitis; test: Caerulein-induced model of acute pancreatitis; format: in vivo, mouse; conditions: 20 mg/kg
Method: as §1
Acute pancreatitis (AP) was induced by intraperitoneal injections of caerulein at 50 μg/kg/h given 6 times.
as §2
Next, the inventors analyzed the efficacy of the compound of Chemical Formula 1 in vivo using two different animal models of acute pancreatitis. […] They pretreated mice with a single dose of compound of Chemical Formula 1, 24 hours prior to Caerulein challenge. An additional dose of compound of Chemical Formula 1 was administered to the animals at the beginning of Caerulein challenge. Upon completion of the experimental timeline, these animals were sacrificed and serum and pancreas tissue samples were collected and analyzed.

[15] = biological target: T2, ERRγ (Homo sapiens, UniProt P62508); test: ERRγ binding
T2 sequence (P62508 1-458): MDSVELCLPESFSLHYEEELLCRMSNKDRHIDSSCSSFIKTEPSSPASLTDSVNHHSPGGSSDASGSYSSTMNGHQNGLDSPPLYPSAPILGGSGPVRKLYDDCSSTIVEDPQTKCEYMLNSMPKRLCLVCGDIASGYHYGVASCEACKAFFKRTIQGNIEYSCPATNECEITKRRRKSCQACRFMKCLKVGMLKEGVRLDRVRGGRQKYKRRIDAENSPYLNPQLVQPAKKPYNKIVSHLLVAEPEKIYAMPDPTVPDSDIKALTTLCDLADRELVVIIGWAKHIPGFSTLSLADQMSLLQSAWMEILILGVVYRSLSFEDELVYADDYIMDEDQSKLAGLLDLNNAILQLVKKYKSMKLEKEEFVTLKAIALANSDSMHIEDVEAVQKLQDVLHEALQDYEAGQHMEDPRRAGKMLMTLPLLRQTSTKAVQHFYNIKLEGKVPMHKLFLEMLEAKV

[16] = Plasma stability r; format: in vitro ADME, rat
[17] = biological target: T2, ERRγ; test: ERRγ functional assay; format: biochemical
[18] = Single dose toxicity; conditions: in vivo, read-out: Single dose Tax, LD50
Text: Next, the inventors analyzed the toxicity of these compounds in vivo (Table 3). […]

[19] = Plasma stability h; format: in vitro ADME, human
[20] = biological target: CYP 2D6 (Homo sapiens, UniProt P10635); test: CYP inhibition 2D6; format: in vitro ADME
Chain of CYP 2D6 (P10635 whole entry): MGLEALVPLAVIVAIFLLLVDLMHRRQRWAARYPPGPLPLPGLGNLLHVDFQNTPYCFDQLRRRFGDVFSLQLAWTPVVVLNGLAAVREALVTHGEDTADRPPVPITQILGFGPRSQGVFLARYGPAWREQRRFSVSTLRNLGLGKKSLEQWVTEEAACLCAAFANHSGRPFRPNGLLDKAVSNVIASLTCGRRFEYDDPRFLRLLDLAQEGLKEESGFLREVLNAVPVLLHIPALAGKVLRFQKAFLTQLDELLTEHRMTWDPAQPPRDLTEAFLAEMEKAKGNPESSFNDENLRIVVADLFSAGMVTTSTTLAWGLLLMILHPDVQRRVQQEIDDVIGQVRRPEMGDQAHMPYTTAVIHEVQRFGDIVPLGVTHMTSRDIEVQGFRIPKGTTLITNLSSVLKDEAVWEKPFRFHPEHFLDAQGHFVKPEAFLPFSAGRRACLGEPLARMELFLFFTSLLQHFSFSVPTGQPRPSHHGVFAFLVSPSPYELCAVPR

[21] = biological target: CYP 2C19 (Homo sapiens, UniProt P33261); test: CYP inhibition 2C19; format: in vitro ADME
Chain of CYP 2C19 (P33261 whole entry): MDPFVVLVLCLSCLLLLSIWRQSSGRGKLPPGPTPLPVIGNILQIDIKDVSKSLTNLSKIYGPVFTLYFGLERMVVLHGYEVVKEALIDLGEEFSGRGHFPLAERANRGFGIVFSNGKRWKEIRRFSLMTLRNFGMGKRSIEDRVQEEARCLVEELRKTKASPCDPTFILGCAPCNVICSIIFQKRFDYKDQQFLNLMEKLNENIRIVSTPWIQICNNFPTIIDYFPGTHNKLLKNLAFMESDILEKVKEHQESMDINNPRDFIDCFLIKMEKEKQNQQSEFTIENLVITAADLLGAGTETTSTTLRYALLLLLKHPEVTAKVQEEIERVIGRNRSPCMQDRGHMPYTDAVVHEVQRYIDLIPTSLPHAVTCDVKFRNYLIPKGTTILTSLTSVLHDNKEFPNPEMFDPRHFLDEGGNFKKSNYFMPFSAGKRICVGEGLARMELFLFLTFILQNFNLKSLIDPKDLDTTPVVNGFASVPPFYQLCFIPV

[22] = biological target: CYP 1A2 (Homo sapiens, UniProt P05177); test: CYP inhibition 1A2; format: in vitro ADME
Chain of CYP 1A2 (P05177 whole entry): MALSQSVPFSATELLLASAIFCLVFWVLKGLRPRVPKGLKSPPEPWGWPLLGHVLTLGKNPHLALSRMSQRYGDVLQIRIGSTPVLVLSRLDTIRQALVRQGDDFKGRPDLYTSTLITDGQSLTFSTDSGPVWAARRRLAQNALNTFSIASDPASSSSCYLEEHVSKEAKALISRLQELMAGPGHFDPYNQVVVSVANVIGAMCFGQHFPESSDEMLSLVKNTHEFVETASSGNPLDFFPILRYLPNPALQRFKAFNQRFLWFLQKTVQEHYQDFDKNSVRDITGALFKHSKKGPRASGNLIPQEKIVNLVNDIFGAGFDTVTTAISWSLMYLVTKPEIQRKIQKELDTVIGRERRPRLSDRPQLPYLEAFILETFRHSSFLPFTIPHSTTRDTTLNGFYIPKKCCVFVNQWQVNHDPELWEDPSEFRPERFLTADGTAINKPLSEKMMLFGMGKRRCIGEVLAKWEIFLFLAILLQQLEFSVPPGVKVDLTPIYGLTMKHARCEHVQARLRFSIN

[23] = biological target: CYP 3A4 (Homo sapiens, UniProt P08684); test: CYP inhibition 3A4; format: in vitro ADME
Chain of CYP 3A4 (P08684 whole entry): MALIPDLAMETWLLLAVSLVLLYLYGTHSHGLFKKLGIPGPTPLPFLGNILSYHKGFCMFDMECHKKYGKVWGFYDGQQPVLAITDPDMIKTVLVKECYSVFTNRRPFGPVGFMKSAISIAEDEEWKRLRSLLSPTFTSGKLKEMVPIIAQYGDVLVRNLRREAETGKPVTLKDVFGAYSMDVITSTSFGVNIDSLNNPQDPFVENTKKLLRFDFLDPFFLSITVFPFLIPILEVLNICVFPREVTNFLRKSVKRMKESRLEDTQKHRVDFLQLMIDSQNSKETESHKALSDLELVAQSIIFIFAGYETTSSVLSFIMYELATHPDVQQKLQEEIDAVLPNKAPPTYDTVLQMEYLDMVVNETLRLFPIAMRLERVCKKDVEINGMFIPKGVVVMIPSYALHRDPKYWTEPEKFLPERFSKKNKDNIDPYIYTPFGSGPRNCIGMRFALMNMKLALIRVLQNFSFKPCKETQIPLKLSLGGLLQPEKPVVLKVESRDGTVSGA

[24] = biological target: CYP 2C9 (Homo sapiens, UniProt P11712); test: CYP inhibition 2C9; format: in vitro ADME
Chain of CYP 2C9 (P11712 whole entry): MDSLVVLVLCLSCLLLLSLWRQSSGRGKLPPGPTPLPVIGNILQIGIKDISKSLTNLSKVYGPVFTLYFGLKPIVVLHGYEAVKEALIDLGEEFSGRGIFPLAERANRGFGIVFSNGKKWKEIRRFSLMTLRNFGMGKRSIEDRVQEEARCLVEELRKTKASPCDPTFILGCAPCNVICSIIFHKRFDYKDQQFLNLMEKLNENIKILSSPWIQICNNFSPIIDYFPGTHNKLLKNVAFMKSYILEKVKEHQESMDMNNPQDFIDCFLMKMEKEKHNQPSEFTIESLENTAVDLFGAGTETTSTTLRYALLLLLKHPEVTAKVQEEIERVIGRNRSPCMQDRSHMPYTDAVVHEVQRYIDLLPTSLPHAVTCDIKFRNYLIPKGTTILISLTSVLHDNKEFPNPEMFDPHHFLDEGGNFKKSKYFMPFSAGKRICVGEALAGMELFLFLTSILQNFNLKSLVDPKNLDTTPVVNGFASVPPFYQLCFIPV

Chain of ERα (P03372 whole entry): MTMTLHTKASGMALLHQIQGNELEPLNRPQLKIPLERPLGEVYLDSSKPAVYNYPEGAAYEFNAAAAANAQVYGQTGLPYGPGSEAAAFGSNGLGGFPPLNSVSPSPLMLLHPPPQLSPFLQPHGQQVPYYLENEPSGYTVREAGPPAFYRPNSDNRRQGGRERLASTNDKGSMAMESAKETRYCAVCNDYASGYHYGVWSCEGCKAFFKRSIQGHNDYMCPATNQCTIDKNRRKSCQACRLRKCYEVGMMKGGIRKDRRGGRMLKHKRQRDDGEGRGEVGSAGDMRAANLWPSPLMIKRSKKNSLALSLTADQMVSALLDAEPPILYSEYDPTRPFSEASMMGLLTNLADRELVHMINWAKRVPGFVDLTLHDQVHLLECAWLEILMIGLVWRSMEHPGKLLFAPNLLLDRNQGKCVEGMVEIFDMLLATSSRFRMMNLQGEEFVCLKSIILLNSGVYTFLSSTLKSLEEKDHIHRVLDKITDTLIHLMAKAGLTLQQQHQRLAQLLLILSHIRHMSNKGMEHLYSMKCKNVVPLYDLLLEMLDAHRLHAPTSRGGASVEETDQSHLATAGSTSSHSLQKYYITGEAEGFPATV

Row | Structure (SMILES) | Cmax [1] [nM] | PK BA % [1] [%] | clearance [1] [mL/min/kg] | half-life [1] [h] | Vd [1] [L/kg] | PK iv AUC [1] [μMh] | PK po AUC [1] [μMh] | IC50 [3] [µM] | Papp [4] [×10⁻⁶ cm/s] | IC50 [5] [µM] | CYP (% remaining at 10 μM), All [7] | MS (% of control) h [8] | MS (% of control) d [9] | MS (% of control) r [10] | solubility [11] [µg/mL] | MS (% of control) m [12] | LD50 [18] [mg/kg] | further results
1 | OCCC/C(=C(/c1ccc(C2CCN(C3CC3)CC2)cc1)c1cccc(O)c1)c1ccccc1 [DMRC200966, (E)-5-(5-hydroxyphenyl)-5-(4-(N-cyclopropylpiperidin-4-yl)phenyl)-4-phenylpent-4-en-1-ol] | 1510 | 58.2 | 45 | 1.8 | 4.6 | 0.85 | 4.93 | 17 | 0.014 | > 30 | OK All >83% | 62 % of control | 57 % of control | 50 % of control | > 1000 | 25 % of control | – | IC50 [2]: > 10 µM; IC50 [6]: > 10 µM
2 | OCCC/C(=C(\c1ccc(O)cc1)c1ccc(C2CCN(C3CC3)CC2)cc1)c1ccccc1 [DMRC200699, (E)-5-(4-hydroxyphenyl)-5-(4-(N-cyclopropylpiperidin-4-yl)phenyl)-4-phenylpent-4-en-1-ol] | 380 | 46 | 68 | 3 | 12 | 0.50 | 2.24 | – | 0.35 | – | – | – | 92 % of control | 92 % of control | > 1000 | 84 % of control | – | –
3 | CC(C)N1CCN(c2ccc(/C(=C(/CCCO)c3ccccc3)c3ccc(O)cc3)cc2)CC1 [DMRC200434, (E)-5-(4-hydroxyphenyl)-5-(4-(4-isopropylpiperazin-1-yl)phenyl)-4-phenylpent-4-en-1-ol] | 208 | 22 | 75 | 3.7 | 16 | 0.42 | 0.82 | > 10 | 0.46 | 21.3 | OK All >64% | 27 % of control | 50 % of control | 33 % of control | > 1000 | 20 % of control | > 2000 | Sodium Taurocholate-induced acute pancreatitis, overall outcome [13]: rescues mice; Caerulein-induced acute pancreatitis, overall outcome [14]: rescues mice; Serum amylase ([14]; 24 h before and at start of Caerulein, vs Caerulein alone): dramatic reduction; Pancreatic histopathology (H&E) ([14]; vs Caerulein alone): dramatically improved; Pancreatic tissue trypsin activity ([14]; vs Caerulein alone): dramatic reduction; Serum lipase ([14]; vs Caerulein alone): dramatic reduction; IC50 [15]: 0.04 µM; Plasma Stability (% of remaining after 2 h) r [16]: 97.1%; IC50 [17]: 0.006 µM; Plasma Stability (% of remaining after 2 h) h [19]: 92.1%
4 | CN(C)CCOc1ccc(/C(=C(/CCCO)c2ccccc2)c2ccc(O)cc2)cc1 [GSK5182, reference compound] | – | 8.4 | 44 | – | – | 0.89 | 0.68 | – | – | – | OK All >73% | 43 % of control | 10 % of control | 26 % of control | > 1000 | 7 % of control | – | –
5 | CC(C)N1CCN(c2ccc(/C(=C(/CCCO)c3ccccc3)c3cccc(O)c3)cc2)CC1 [DMRC2001000, (E)-5-(5-hydroxyphenyl)-5-(4-(4-isopropylpiperazin-1-yl)phenyl)-4-phenylpent-4-en-1-ol] | – | – | – | – | – | 0.99 | 4.18 | – | – | – | – | 65 % of control | 61 % of control | 55 % of control | > 1000 | 27 % of control | > 2000 | Permeability (PAMPA) [4]: 1.29 10^−6 cm/s; CYP (% remaining at 10 μM) 2D6 [20]: 66%; CYP (% remaining at 10 μM) 2C19 [21]: 100%; CYP (% remaining at 10 μM) 1A2 [22]: 100%; CYP (% remaining at 10 μM) 3A4 [23]: 3A4(48) %; CYP (% remaining at 10 μM) 2C9 [24]: 76%
